Reference: patent publication US20170210751A1, “PRMT5 INHIBITORS AND USES THEREOF” (Epizyme, Inc., priority 2014, published 2017)

Tests used:
[1] = biological target: T1, PRMT5/MEP50 (Homo sapiens, UniProt O14744); assay: PRMT5 Biochemical Assay (PRMT5/MEP50 enzyme assay on peptide substrate, 3H-SAM Flashplate); conditions: PRMT5/MEP50 4 nM, 3H-SAM 75 nM, peptide 40 nM, 30 min preincubation at 25 degrees Celsius
T1 construct: Flag-PRMT5; made in house; host or cells: Spodoptera frugiperda (SF9) insect cells, baculovirus (pDEST8)
Procedure, shortened: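 FLAG-PRMT5/His-MEP50 from Sf9 cells (4 nM) preincubated 30 min at 25 °C with compounds, then reacted with 75 nM 3H-SAM and 40 nM biotinylated histone H4 1-15 peptide in Bicine pH 7.6, 1% DMSO. Stopped with 600 uM cold SAM; streptavidin Flashplate capture, scintillation counts; % inhibition fitted to 3- or 4-parameter curve.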

[2] = test system: Z-138 cell line; assay: Z-138 Proliferation Assay (Cell Titer Glo); assay type: cell-based; conditions: Homo sapiens, 120 h; Z-138 cells, 5 days incubation, ATP (Cell Titer Glo)
Procedure, shortened: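 Z-138 cells in RPMI with 10% FBS exposed 5 days at 37 °C to nine-point 3-fold dilutions, top 20 μM final, 0.2% DMSO, triplicate. ATP-based CellTiter-Glo luminescence; IC50 from 4-parameter fit of normalized curves.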

T1 sequence (O14744 with tags, fused parts or gaps): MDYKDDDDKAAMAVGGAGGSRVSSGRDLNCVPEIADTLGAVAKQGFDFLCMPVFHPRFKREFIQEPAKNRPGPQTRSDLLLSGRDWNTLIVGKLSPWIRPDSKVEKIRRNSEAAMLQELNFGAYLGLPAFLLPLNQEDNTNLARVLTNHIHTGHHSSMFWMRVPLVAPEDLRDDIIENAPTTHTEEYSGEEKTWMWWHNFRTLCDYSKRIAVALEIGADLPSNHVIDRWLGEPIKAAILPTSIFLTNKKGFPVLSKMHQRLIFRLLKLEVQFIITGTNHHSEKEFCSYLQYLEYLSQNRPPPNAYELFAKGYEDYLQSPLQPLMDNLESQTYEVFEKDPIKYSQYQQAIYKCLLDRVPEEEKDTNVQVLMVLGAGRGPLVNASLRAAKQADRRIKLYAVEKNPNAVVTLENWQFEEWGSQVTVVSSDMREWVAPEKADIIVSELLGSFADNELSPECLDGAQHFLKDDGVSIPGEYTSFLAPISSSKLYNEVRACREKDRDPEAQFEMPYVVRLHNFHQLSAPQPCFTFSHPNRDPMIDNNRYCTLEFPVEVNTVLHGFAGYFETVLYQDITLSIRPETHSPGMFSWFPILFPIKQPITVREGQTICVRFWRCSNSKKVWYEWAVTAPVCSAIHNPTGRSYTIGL
T1 sequence (Q9BQA1 with tags, fused parts or gaps partner limits assumed): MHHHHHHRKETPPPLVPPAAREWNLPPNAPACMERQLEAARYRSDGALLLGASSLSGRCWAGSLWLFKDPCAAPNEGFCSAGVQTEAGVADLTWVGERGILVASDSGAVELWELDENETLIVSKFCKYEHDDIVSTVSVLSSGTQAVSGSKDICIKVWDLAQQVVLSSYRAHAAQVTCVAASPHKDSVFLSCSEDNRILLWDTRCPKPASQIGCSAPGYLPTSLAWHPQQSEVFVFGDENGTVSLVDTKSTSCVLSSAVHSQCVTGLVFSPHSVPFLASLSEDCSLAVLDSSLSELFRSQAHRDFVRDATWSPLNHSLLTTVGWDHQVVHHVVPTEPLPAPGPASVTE

IC50 [1] [µM] | Compound | EC50 [2] [µM]
> 10 | CC(=O)N1CCC(Nc2cc(C(=O)NC[C@H](O)CN3CCc4ncn(C)c4C3)ncn2)CC1 [Compound 3-30, (S)-6-((1-acetylpiperidin-4-yl)amino)-N-(2-hydroxy-3-(3-methyl-6,7-dihydro-3H-imidazo[4,5-c]pyridin-5(4H)-yl)propyl)pyrimidine-4-carboxamide] | > 5
> 10 | CC(=O)N1CC(Nc2cc(C(=O)NC[C@H](O)CN3CCc4c(cnn4C)C3)ncn2)C1 [Compound 3-29] | > 5
< 0.1 | O=C(COc1cccc2cccnc12)NCC(O)CN1CCc2ccsc2C1 (stereo not drawn) [Compound 1-5, N-(2-hydroxy-3-{4H,5H,6H,7H-thieno[2,3-c]pyridin-6-yl}propyl)-2-(quinolin-8-yloxy)acetamide] | > 5
